According to patent US8685963B2, “Compounds that inhibit NFκB and BACE1 activity” (The Trustees of Columbia University in the city of New York, priority 2008, dated 2014):

What was measured:
NFkB [1] = test: NFkB-dependent β-lactamase reporter assay (NFkB-bla), TNFα stimulated; type: cell-based
Text: By way of example, and not of limitation, such an assay may comprise contacting a cell expressing the NFκβ-dependent reporter construct, and monitoring the level of β-lactamase expression, wherein a decrease in expression compared to a cell not contacted with the compound indicates a reduction in NFκB activity.
The above-described assays were validated using known inhibitors of the NFkB pathway (FIG. 6). The proteasome inhibitor MG-132 (1) 16 served as a positive control for the IkBα stabilization assay. The translocation assay used BAY 11-7082 (2), an agent that inhibits the TNFα-induced phosphorylation of IkBα. […] Additionally, a substituted 2-(thiophen-2-yl)quinazoline 3 which acts as an inhibitor of NFkB and Aβ1 mediated transcriptional activation (Palanki et al., 2003, Bioorg. Med. Chem. Lett. 13:4077) was used as a positive control in a secondary assay that used TNFα to stimulate NFkB-dependent expression of a β-lactamase reporter (NFkB-bla in FIG. 7). This compound also served as a negative control for the dual luciferase IkBa stabilization assay.

IkBα = test: dual luciferase IkBα stabilization screen in OCI-Ly3; type: cell-based; details: OCI-Ly3 cells
Text: FIG. 5A-B depicts (A) The two-color dual luciferase based assay. IκBα is fused to a luciferase emitting greenlight (CBG68), while a red light-emitting luciferase (CBR) is present in its native state. Both luciferases are regulated by binding of the tet repressor to the tet operator (TO) binding site (TO), allowing simultaneous induction of the luciferases by the CMV promoter upon addition of doxycycline and test compounds. The CBR protein serves to normalize for non-specific effects, while the levels of the IκBα-CBG68 protein increase uniquely with inhibition of the NFκB pathway leading to IκBα degradation. (B) The nuclear translocation assay. TNFα stimulation results in nuclear translocation of NFκB, which is detected by immunofluorescence using an anti-p65 antibody and a secondary antibody labeled with an Alexa 647 fluorophore (A647). […]
To identify modulators of IkBα stability in ABC-DLBCL lines, such as small molecules inhibiting IKK or proteasome activity, changes in the level of an exogenous IkBα-luciferase fusion reporter expressed by an NFkB-insensitive promoter were measured. […] Upon doxycycline induction of both luciferase reporters, compounds that increased green luminescence with minimal effects on the red luminescence signal were scored as IkBα stabilizers. […]

NFkB [2] = test: TNFα-induced NFkB nuclear translocation high-content screen in HUVEC; type: cell-based, human
Text: FIG. 5A-B depicts (A) The two-color dual luciferase based assay. IκBα is fused to a luciferase emitting greenlight (CBG68), while a red light-emitting luciferase (CBR) is present in its native state. Both luciferases are regulated by binding of the tet repressor to the tet operator (TO) binding site (TO), allowing simultaneous induction of the luciferases by the CMV promoter upon addition of doxycycline and test compounds. The CBR protein serves to normalize for non-specific effects, while the levels of the IκBα-CBG68 protein increase uniquely with inhibition of the NFκB pathway leading to IκBα degradation. (B) The nuclear translocation assay. TNFα stimulation results in nuclear translocation of NFκB, which is detected by immunofluorescence using an anti-p65 antibody and a secondary antibody labeled with an Alexa 647 fluorophore (A647). […] In the assay, nuclear translocation of the endogenous p65 RelA subunit of NFkB, at 30 min post-stimulation, was monitored using fluorescent antibody detection and an automated imaging platform. (Mayer et al., 2006, Methods Enzyme 414:266) NFkB inhibitors in this assay, such as IkBα stabilizers, were detected as compounds that interfered with p65 translocation to the nucleus.

For O=S(=O)(Nc1cccc2cccnc12)c1ccccc1 [Compound 4, N-(quinolin-8-yl)benzenesulfonamide], the “ability to inhibit the NFkB pathway (β-lactamase reporter)” value (NFkB [1]) was “confirmed the ability of these compounds to inhibit the NFkB pathway”, the “identified in IkBα stabilization screen” value (IkBα) was “identified” and the “identified in NFkB translocation screen” value (NFkB [2]) was “identified”.
